In ChEMBL document CHEMBL1201862, “PubChem BioAssay data set” (2004):
Activity calls are given as the source filed them. How the calls were made is not given here.

Experiments:
[1] = target: T1, High affinity choline transporter 1 (Homo sapiens, UniProt Q9GZV3); assay: CHT inhibitors, dose response, cell-based, 10-point CRC, membrane potential dye (AID 588401); format: functional;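 further: membrane potential dye fluorescence of choline-evoked depolarization via CHT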
T1 sequence (Q9GZV3 whole entry): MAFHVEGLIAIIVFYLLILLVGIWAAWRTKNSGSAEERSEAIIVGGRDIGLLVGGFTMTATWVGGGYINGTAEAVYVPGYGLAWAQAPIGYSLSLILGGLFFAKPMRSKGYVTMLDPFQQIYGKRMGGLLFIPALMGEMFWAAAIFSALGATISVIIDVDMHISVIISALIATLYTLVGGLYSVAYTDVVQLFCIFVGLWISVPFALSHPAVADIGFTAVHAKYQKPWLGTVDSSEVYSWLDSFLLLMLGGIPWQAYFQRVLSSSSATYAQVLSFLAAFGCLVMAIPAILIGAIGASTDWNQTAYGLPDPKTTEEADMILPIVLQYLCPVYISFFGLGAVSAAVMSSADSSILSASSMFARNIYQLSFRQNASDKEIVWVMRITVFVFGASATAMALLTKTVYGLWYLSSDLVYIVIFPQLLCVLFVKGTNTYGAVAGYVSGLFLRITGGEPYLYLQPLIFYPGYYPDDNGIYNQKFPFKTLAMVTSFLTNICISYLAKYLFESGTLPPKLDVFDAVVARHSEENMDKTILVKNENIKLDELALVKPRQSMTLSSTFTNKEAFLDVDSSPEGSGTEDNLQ

[2] = target: T1, High affinity choline transporter 1; assay: CHT inhibitors, dose response, cell-based, 5-point CRC, membrane potential dye (AID 504840); format: functional

IC50 [1]: 4.28 µM (active)
IC50 [2]: 7.88 µM (active)
Structure (SMILES): CCOc1ccccc1Nc1ccc2nonc2c1[N+](=O)[O-]
